These compounds were tested on Jurkat cells (assay: Initial SAR: activity of PAL functionalized PTMA analogs). Conditions: in the concentrate range.
Assay type: cell-based, human
From the text: FIG. 3. Initial SAR studies: Assessing activity of PAL functionalized PTMA analogs. […] (A) PA and Ph-PA show less toxic to healthy PBMCs compared to Jurkat cells. […] (B) Immunoblot of caspase-3 in Jurkat and PBMCs with indicated conditions.
• 1) Portimine A and its functional analogs show stereo-selective acute toxicity in cancer cells (FIG. 1). […] (B) Structure of portimine related analogs: phenyl-portimine A (Ph-PA, 36) and epi-portimine A (ePA, 38). Structure of fully functionalized portimine A-based epimeric probe pair: portimine A-diazirine-alkyne (PA-DA, 35-2) and epi-portimine A-diazirine-alkyne (ePA-DA, 35-1). (C) Cell viability analysis of portimine A and analogs. Jurkat cells were treated with increasing concentrations of portimine A and analogs for 24 hours. All presented data as mean of biological replicated experiments (n=3). […] Jurkat cells were treated with portimine A or analogs for 12 hours at 10 nM. […] Structurally related negative control ePA and PB are non-toxic in all cell types in the current concentrate range. PBMCs (25k per well), Jurkat (10k per well). […] Cell cycle analysis in Jurkat cells (FIG. 2). Jurkat cells were treated with 10 nM of indicated compounds for 24 hours, and propodium iodide was used to identify different stages of cells by flow cytometry. […] (A) PA and Ph-PA show less toxic to healthy PBMCs compared to Jurkat cells. […] (B) Immunoblot of caspase-3 in Jurkat and PBMCs with indicated conditions. […] (A) Pharmacokinetic studies of mouse intraperitoneal (i.p.) and oral (p.o.) administration for portimine (n=3). […] Impact of PA [0.3 or 1 mg/kg intraperitoneally] on MC38 tumor growth in WT mice (n=6). (C) Kaplan-Myer survival curve of WT MC38 tumor-bearing mice (n=6) after treatment with PA as described in (D). Mice were euthanized when tumor area exceeded 2000 mm^3. Statistical analysis was performed using ANOVA analysis followed by multiple comparisons test, * p≤0.05. Treatment condition: Jurkat (60 M per condition); PA-DA/ePA-DA concentration: 0.5 uM, PA or ePA: 5 uM; Incubate with probe with or without competitors (PA, ePA) for 30 min; UV irradiated for 20 min. (0.5 uM PA-DA add a no-UV condition), Standard pulldown & biotin-enrichment and western blot analysis (Elute condition: 2× sample buffer+500 uM biotin, boil for 20 mins); Primary antibody NMD3 (ProteinTech, 1:150), Actin (BioRad, 1:10000). […] Cell lysates were fractionated by sucrose gradient (5-50%) and each fraction were analyzed by western blot. eIF6 levels increase in 60S subunit fraction and decrease in ribosome-free fractions after PA treatment. […]
With `C#CCCC1(CCNC(=O)c2ccc(C3=C[C@@H]4[C@@H]5O[C@]6(CC[C@H](O6)C(C)C[C@@H](O)C5=O)CC(O)C5=NCC[C@@]54CC3)cc2)N=N1` (stereo partly drawn) [PA-DA, portimine A-diazirine-alkyne] the “activity of PAL functionalized PTMA analogs” value was “analogous activity to PTMA”.
For `C=CC1=C[C@@H]2[C@@H]3O[C@]4(CC[C@H](O4)C(C)C[C@@H](O)C3=O)C[C@@H](O)C3=NCC[C@@]32CC1` (stereo partly drawn) [ePA, epi-portimine A], the “activity of PAL functionalized PTMA analogs” value was “no activity”.
In the case of `C#CCCC1(CCNC(=O)c2ccc(C3=C[C@@H]4[C@@H]5O[C@]6(CC[C@H](O6)C(C)C[C@@H](O)C5=O)C[C@@H](O)C5=NCC[C@@]54CC3)cc2)N=N1` (stereo partly drawn) [ePA-DA, epi-portimine A-diazirine-alkyne], the “activity of PAL functionalized PTMA analogs” value is reported as “no activity”.

— patent publication US20260242390A1, “TOTAL SYNTHESES OF PORTIMINE A AND ANALOGUES THEREOF AS SMALL MOLECULE MODULATORS OF NMD3” (priority 2023, published 2026)
